Tests used:
Type in all cases: cell-based
[1] = molecular target: T1, human MCT4 (Homo sapiens, UniProt O15427); assay: 14C lactate uptake in MCF7_MCT4 cells; settings: increased uptake versus parental MCF7 cells
T1 sequence (O15427 1-465): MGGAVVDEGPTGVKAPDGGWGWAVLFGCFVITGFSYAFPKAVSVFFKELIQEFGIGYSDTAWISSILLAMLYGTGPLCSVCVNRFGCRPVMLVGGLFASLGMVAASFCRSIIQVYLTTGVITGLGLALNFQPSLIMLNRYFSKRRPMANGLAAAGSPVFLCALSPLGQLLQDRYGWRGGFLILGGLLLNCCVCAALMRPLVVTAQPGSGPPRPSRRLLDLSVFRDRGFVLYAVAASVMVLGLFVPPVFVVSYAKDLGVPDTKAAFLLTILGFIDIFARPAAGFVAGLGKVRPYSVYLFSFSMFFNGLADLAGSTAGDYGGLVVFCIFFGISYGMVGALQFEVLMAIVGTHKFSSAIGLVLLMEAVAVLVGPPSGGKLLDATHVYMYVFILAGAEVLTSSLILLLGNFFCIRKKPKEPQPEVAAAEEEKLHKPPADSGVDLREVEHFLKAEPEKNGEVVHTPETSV

[2] = tested on: MCF7_MCT4 cells; assay: MCF7_MCT4 MTT assay; settings: Homo sapiens, 96 h, read-out: growth inhibition EC50, MCF7_MCT4 cells
[3] = tested on: human Raji lymphoma cells; assay: Raji lymphoma cell MTT assay
[4] = molecular target: T2, MCT1 (Mus musculus, UniProt P53986); assay: MCF7_MCT1 14C-lactate transport assay; settings: IC50 (nM) lactate transport, labeled (14C) lactate transport, MCF7 breast cancer cells engineered to overexpress MCT1, 10 min on ice
T2 sequence (P53986 1-493): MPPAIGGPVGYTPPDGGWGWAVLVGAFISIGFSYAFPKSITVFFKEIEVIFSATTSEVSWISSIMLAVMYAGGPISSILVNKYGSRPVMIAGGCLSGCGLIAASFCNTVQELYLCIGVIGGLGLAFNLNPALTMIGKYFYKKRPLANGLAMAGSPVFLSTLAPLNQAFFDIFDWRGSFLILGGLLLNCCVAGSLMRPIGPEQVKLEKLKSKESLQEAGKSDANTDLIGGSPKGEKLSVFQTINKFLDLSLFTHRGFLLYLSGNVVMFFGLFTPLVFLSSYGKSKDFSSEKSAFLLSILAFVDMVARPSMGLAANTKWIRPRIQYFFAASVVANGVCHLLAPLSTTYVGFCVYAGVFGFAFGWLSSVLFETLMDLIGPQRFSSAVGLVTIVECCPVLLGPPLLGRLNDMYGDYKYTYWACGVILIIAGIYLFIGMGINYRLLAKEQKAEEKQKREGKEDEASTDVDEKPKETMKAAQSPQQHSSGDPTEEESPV

Compound | activity in Raji lymphoma cell proliferation assay (in words) [3] | IC50 [4] [nM] | other results
CC(C)Cc1nn(C)c(=O)c2c(SCCCO)n(Cc3cccc4ccccc34)cc12 [Compound 1, reference compound] |  |  | effect on 14C lactate uptake in MCF7_MCT4 cells (in words) [1]: not inhibited; EC50 [2]: > 10000 nM
CC(C)Cn1c(=O)n(C)c(=O)c2[nH]c(=O)c(Cc3cccc4ccccc34)nc21 [Compound 12] | inactive |  | 
CC(C)Cn1c(=O)n(C)c(=O)c2c1nc(Cc1cccc3ccccc13)c(=O)n2CCCCO [Compound 14b] |  | 548 | 
CC(C)Cn1c(=O)n(C)c(=O)c2c1nc(Cc1cccc3ccccc13)c(=O)n2CCCCCCO [Compound 14d] | inactive |  | 
CC(C)Cn1c(=O)n(C)c(=O)c2nc(SCCCO)c(Cc3cccc4ccccc34)nc21 [Compound 15b] |  | 858 | 
CC(C)Cn1c(=O)n(C)c(=O)c2nc(SCCCCO)c(Cc3cccc4ccccc34)nc21 [Compound 15c] |  |  | fold higher EC50 than clinical compound 2 [3]: 2–4 fold
CC(C)Cn1c(=O)n(C)c(=O)c2nc(CCCCO)c(Cc3cccc4ccccc34)nc21 [Compound 23a] |  | > 2000 | 
CC(C)Cn1c(=O)n(C)c(=O)c2nc(CCCCCO)c(Cc3cccc4ccccc34)nc21 [Compound 23b] |  | 192 | fold higher EC50 than clinical compound 2 [3]: 2–4 fold
CC(C)Cn1c(=O)n(C)c(=O)c2nc(/C=C\CCCO)c(Cc3cccc4ccccc34)nc21 [Compound 27] |  | 116 | fold higher EC50 than clinical compound 2 [3]: 2–4 fold
COCCCCCc1nc2c(=O)n(C)c(=O)n(CC(C)C)c2nc1Cc1cccc2ccccc12 [Compound 28] | largely inactive |  | 
Cc1n[nH]c(C)c1Cc1nc2c(nc1CCCCCO)c(=O)n(C)c(=O)n2CC(C)C [Compound 31] | inactive |  | 
